Experiments:
[1] = Blood concentration of anesthetics by GC and conversion to MAC-equivalents; assay type: in vivo, rabbit
Method: (§1) Baseline measurements of systemic hemodynamics, arterial blood gas tensions, and blood concentrations of anesthetic agent were performed 30 min after instrumentation was completed. Rabbits received 0.9% saline, drug lipid vehicle (10 ml/h), or intravenous volatile anesthetic (10 ml/h) for 30 min. Infusions were discontinued 30 min prior to coronary occlusion (memory period). Blood concentrations of anesthetic agents were performed at baseline, at the end of anesthetic infusion, and at the end of the memory period just before coronary occlusion). HVA concentrations in blood were determined by gas chromatographic (GC) analysis. All rabbits underwent a 30 min LAD occlusion followed by 3 h reperfusion.
Blood concentrations as measured by GC were converted to their MAC-equivalent values by calculations described below. Initially “n”, or the number of moles of HVA in 1 L of alveolar gas during exposure to 1.0 MAC of the HVA was calculated. The ideal gas law n=PV/RT is used to calculate the number of moles of HVA present at 1 MAC in the alveolar gas where: V=1 L, T=273+37=310° (K); and R=0.0821 (universal gas constant). P or pressure was determined taking into account the vapor pressure of water at 37° C. which is 47.1 torr, and the volume percent of the HVA. Volume percentages of HVAs (MAC values) were obtained from literature values determined in rabbits (Scheller et al. Can. J. Anaesth. 1988, 35: 133-136; Drummond, J C Anesthesiology 1985; 62: 336-8, and Doorley et al. Anesthesiology 1988; 69, 89-91), and are presented in Table 8.
The number of moles of the HVA in 1 L at 37° C. at 1 MAC in rabbits was then used to determine the concentration of the HVA present in blood by using known blood/gas partition values (also known as λ). Blood gas partition values for the HVAs used in the study are show in Table 8. The value for “x” (or the equivalent blood concentration of the HVA at 1 MAC at 37° C. in rabbit) is then determined by the equation: x=λn
To express a measured blood concentration of an HVA as a MAC-equivalent value, the measured blood concentration is divided by x. The MAC equivalent values shown in Table 8 were calculated according to the above from the blood concentrations observed (see Table 7).

[2] = blood/gas; cited from earlier work
[3] = literature values determined in rabbits; cited from earlier work
[4] = Arterial blood gas analysis; assay type: in vivo, rabbit; conditions: for pH: arterial blood
Method: Male New Zealand white rabbits weighing between 2.5 and 3.0 kg were anesthetized with intravenous sodium pentobarbital (30 mg/kg). Additional doses of pentobarbital were titrated as required to assure that pedal and palpebral reflexes were absent throughout the experiment. A tracheotomy was performed through a ventral midline incision, and the trachea was cannulated. The rabbits were ventilated with positive pressure using an air-oxygen mixture (FiO2=0.33). […] Body temperature was maintained with a heating blanket. Heparin-filled catheters were inserted into the right carotid artery and the left jugular vein for measurement of arterial blood pressure and fluid or drug administration, respectively. Maintenance fluids consisted of 0.9% saline (15 ml/kg/h) that were continued for the duration of the experiment.
as §1
Statistical analysis of data within and between groups was performed with analysis of variance (ANOVA) for repeated measures followed by Student-Newman-Keuls test. Changes between groups were considered statistically significant when the p value was less than 0.05. All data are expressed as mean±SEM.

[5] = Warming of emulsion at 37° C. for 2 h before infusion; assay type: physicochemical; conditions: syringe and extension tubing
Method: The experimental design for the experiments is illustrated in FIG. 1. Rabbits were randomly assigned to one of six experimental groups: a control group (0.9% saline infusion), a vehicle group (drug lipid vehicle), or one of four anesthetic groups (emulsified desflurane, isoflurane, enflurane, or sevoflurane). The vials of anesthetics were stored at 4° C. as prepared in Example 1. After opening, the vial was left in a water bath at 37° C. for 2 h. Anesthetics were directly poured into the syringe without using negative pressure suction.
All anesthetics were used under equivalent experimental conditions, as indicated previously (i.e., warmed for two hours at body temperature before infusion).
Despite efforts to remove the bubbles, it was impossible to eliminate all bubbles, and some were likely infused during the infusion period. Desflurane results should therefore be interpreted with the constraints of this experimental limitation.

[6] = Infusion (end of 30 min, 10 ml/h i.v. infusion)
[7] = Memory (30 min after infusion, just before coronary occlusion)
[8] = measured blood concentration divided by x

Row | SMILES | Blood Concentration ([1]; Baseline) [µM] | Blood Concentration [1, 6] [µM] | Blood Concentration [1, 7] [µM] | Observed Blood Concentration following 30 min, 10 mL/h Infusion ([1]; i.v. emulsion) [mM] | Observed Blood Concentration following 30 min, 10 mL/h Infusion [1, 8] [MAC-Equivalents] | Partition Coefficient ("λ") [2] | Average MAC [3] [% v/v] | PaCO2 ([4]; Baseline) [mmHg] | PaO2 ([4]; Baseline) | PaCO2 ([4]; Infusion) [mmHg] | PaO2 ([4]; Infusion) [mmHg] | PaCO2 ([4]; Ischemia 30 min) [mmHg] | PaO2 ([4]; Ischemia 30 min) [mmHg] | PaCO2 ([4]; Memory) [mmHg] | PaO2 ([4]; Memory) [mmHg] | PaCO2 ([4]; Reperfusion 1 h) [mmHg] | PaO2 ([4]; Reperfusion 1 h) [mmHg] | PaCO2 ([4]; Reperfusion 2 h) [mmHg] | PaO2 ([4]; Reperfusion 2 h) | PaCO2 ([4]; Reperfusion 3 h) [mmHg] | further results
1 | FC(F)OC(Cl)C(F)(F)F (centres unmarked) [ISO, isoflurane] | 0 | 180 ± 60 | 40 ± 20 | 0.18 | 0.17 | 1.4 | 2.05 | 34 ± 2 | 136 ± 17 mmHg | 34 ± 2 | 124 ± 11 | 33 ± 2 | 166 ± 24 | 36 ± 2 | 146 ± 15 | 31 ± 2 | 167 ± 12 | 32 ± 2 | 169 ± 12 mmHg | 33 ± 2 | PaO2 ([4]; Reperfusion 3 h): 160 ± 13 mmHg; pH ([4]; Baseline): 7.43 ± 0.02; pH ([4]; Infusion): 7.40 ± 0.03; pH ([4]; Ischemia 30 min): 7.36 ± 0.02; pH ([4]; Memory): 7.36 ± 0.02; pH ([4]; Reperfusion 1 h): 7.39 ± 0.02; pH ([4]; Reperfusion 2 h): 7.39 ± 0.02; pH ([4]; Reperfusion 3 h): 7.39 ± 0.01
2 | FC(F)OC(F)C(F)(F)F (centres unmarked) [DES, desflurane] | 0 | 180 ± 30 | 30 ± 20 | 0.18 | 0.13 | 0.42 | 8.9 | 29 ± 2 | 158 ± 23 mmHg | 32 ± 3 | 157 ± 17 | 31 ± 3 | 136 ± 24 | 34 ± 3 | 143 ± 17 | 30 ± 4 | 141 ± 19 | 26 ± 3 | 155 ± 18 mmHg | 30 ± 1 | behaviour of emulsion on warming to body temperature [5]: bubbles accumulated in the syringe and extension tubing; PaO2 ([4]; Reperfusion 3 h): 165 ± 12 mmHg; pH ([4]; Baseline): 7.45 ± 0.02; pH ([4]; Infusion): 7.40 ± 0.02; pH ([4]; Ischemia 30 min): 7.34 ± 0.01; pH ([4]; Memory): 7.36 ± 0.02; pH ([4]; Reperfusion 1 h): 7.37 ± 0.02; pH ([4]; Reperfusion 2 h): 7.40 ± 0.01; pH ([4]; Reperfusion 3 h): 7.41 ± 0.01
3 | FC(F)OC(F)(F)C(F)Cl (centres unmarked) [ENF, enflurane] | 0 | 310 ± 30 | 60 ± 10 | 0.31 | 0.15 | 1.9 | 2.86 | 28 ± 2 | 151 ± 16 mmHg | 31 ± 2 | 130 ± 14 | 32 ± 2 | 157 ± 22 | 30 ± 2 | 149 ± 16 | 28 ± 2 | 143 ± 11 | 27 ± 2 | 135 ± 10 mmHg | 32 ± 3 | PaO2 ([4]; Reperfusion 3 h): 131 ± 12 mmHg; pH ([4]; Baseline): 7.47 ± 0.02; pH ([4]; Infusion): 7.41 ± 0.02; pH ([4]; Ischemia 30 min): 7.37 ± 0.02; pH ([4]; Memory): 7.40 ± 0.02; pH ([4]; Reperfusion 1 h): 7.38 ± 0.02; pH ([4]; Reperfusion 2 h): 7.40 ± 0.03; pH ([4]; Reperfusion 3 h): 7.42 ± 0.02
4 | FCOC(C(F)(F)F)C(F)(F)F [SEVO, sevoflurane] | 0 | 150 ± 10 | 20 ± 0 | 0.15 | 0.16 | 0.69 | 3.7 | 37 ± 1 | 125 ± 8^ mmHg | 38 ± 1 | 118 ± 6 | 40 ± 1 | 106 ± 12 | 41 ± 1 | 107 ± 11 | 38 ± 1 | 120 ± 7 | 38 ± 1 | 127 ± 6^ mmHg | 39 ± 1 | PaO2 ([4]; Reperfusion 3 h): 121 ± 8 mmHg; pH ([4]; Baseline): 7.44 ± 0.01; pH ([4]; Infusion): 7.42 ± 0.01; pH ([4]; Ischemia 30 min): 7.38 ± 0.01; pH ([4]; Memory): 7.39 ± 0.01; pH ([4]; Reperfusion 1 h): 7.39 ± 0.01; pH ([4]; Reperfusion 2 h): 7.40 ± 0.01; pH ([4]; Reperfusion 3 h): 7.39 ± 0.01
